Bounds are passed on as bounds.

The text below walks through data of patent US10189854B2, “Substituted pyrimidine compounds” (Grünenthal GmbH, priority 2014, dated 2019).

Sequence of human PDE4B1 (Q07343 whole entry): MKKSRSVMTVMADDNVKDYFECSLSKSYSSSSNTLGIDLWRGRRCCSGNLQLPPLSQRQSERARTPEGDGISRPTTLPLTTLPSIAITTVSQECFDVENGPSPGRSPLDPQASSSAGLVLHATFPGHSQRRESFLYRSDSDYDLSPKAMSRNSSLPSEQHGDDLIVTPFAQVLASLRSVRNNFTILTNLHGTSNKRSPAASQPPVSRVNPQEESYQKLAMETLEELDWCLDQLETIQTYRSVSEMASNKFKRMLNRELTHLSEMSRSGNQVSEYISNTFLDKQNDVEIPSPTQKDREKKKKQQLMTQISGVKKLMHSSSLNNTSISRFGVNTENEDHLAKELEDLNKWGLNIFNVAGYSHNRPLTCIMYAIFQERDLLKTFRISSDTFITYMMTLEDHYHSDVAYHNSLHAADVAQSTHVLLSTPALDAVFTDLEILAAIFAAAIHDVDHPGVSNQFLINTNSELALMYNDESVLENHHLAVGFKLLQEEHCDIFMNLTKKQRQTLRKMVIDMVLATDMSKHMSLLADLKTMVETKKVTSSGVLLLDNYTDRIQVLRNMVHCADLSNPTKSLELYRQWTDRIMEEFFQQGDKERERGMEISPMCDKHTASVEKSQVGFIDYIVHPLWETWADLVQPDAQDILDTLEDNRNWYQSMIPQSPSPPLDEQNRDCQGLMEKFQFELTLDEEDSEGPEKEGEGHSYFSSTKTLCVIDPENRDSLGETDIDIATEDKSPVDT

This assay has as its target human PDE4B1 (Homo sapiens (Human), UniProt Q07343). Put plainly: TR-FRET assay using the LANCE Ultra cAMP kit to determine the activity of hPDE4B1. The format is biochemical. The following applies: IC50 inhibition of PDE4B, mean. In a few lines:
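Recombinant human PDE4B1 (Sf9-expressed, 0.96 U) incubated with compound and 500 nM cAMP in 50 mM Tris-HCl, 50 mM MgCl2, 5 mM DTT, pH 8.5, 30 min at room temperature. Residual cAMP read by TR-FRET (665/620 nm ratio) after IBMX stop. IC50 from ten-concentration curves as % inhibition of control.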
On the technique in general: In TR-FRET formats the signal depends on donor and acceptor labels being close together.
As to `O=C(c1ccc2c(c1)N(c1ncc(-c3cc(NCC4CC4)ccn3)cn1)CC21CC1)N1CCOCC1` [Compound 295, [1-[5-[4-(Cyclopropyl-methylamino)-pyridin-2-yl]-pyrimidin-2-yl]-spiro[1,2-dihydro-indole-3,1′-cyclopropane]-6-yl]-morpholin-4-yl-methanone], the IC50 (commonly the point on the concentration scale where inhibition reaches its midpoint) was less than 0.1 µM.

Compound `CN(CCO)C(=O)c1ccc2c(c1)N(c1ncc(-c3cc(S(C)(=O)=O)ccc3F)cn1)CC21CC1` [Compound 296, 1-[5-(2-Fluoro-5-methylsulfonyl-phenyl)-pyrimidin-2-yl]-N-(2-hydroxy-ethyl)-N-methyl-spiro[1,2-dihydro-indole-3,1′-cyclopropane]-6-carboxylic acid amide] showed an IC50 of less than 0.1 µM.

Compound `Cc1ccnc(-c2cnc(N3CC4(CC4)c4ccc(C(=O)N5C[C@@H]6C[C@H]5CN6)cc43)nc2)c1` [Compound 297, [(1S,4S)-2,5-Diazabicyclo[2.2.1]heptan-2-yl]-[1-[5-(4-methyl-pyridin-2-yl)-pyrimidin-2-yl]-spiro[1,2-dihydro-indole-3,1′-cyclopropane]-6-yl]-methanone] returned an IC50 of less than 0.1 µM.

For `CCc1ccnc(-c2cnc(N3CC4(CC4)c4ccc(C(=O)N5C[C@@H]6C[C@H]5CN6)cc43)nc2)c1` [Compound 298, [(1S,4S)-2,5-Diazabicyclo[2.2.1]heptan-2-yl]-[1-[5-(4-ethyl-pyridin-2-yl)-pyrimidin-2-yl]-spiro[1,2-dihydro-indole-3,1′-cyclopropane]-6-yl]-methanone], the IC50 is less than 0.1 µM.

Compound `Cc1ccnc(-c2cnc(N3CC4(CC4)c4ccc(C(=O)N(C)C)cc43)nc2)c1` [Compound 299, N,N-Dimethyl-1-[5-(4-methyl-pyridin-2-yl)-pyrimidin-2-yl]-spiro[1,2-dihydro-indole-3,1′-cyclopropane]-6-carboxylic acid amide] registered an IC50 of less than 0.1 µM.

In the case of `Cc1ccnc(-c2cnc(N3CC4(CC4)c4ccc(C(=O)N(C)CC(N)=O)cc43)nc2)c1` [Compound 300, N-(Carbamoyl-methyl)-N-methyl-1-[5-(4-methyl-pyridin-2-yl)-pyrimidin-2-yl]-spiro[1,2-dihydro-indole-3,1′-cyclopropane]-6-carboxylic acid amide], the IC50 was less than 0.1 µM.

On to `Nc1ccnc(-c2cnc(N3CC4(CC4)c4ccc(C(=O)N5C[C@@H]6C[C@H]5CN6)cc43)nc2)c1` [Compound 301, [1-[5-(4-Amino-pyridin-2-yl)-pyrimidin-2-yl]-spiro[1,2-dihydro-indole-3,1′-cyclopropane]-6-yl]-[(1S,4S)-2,5-diazabicyclo[2.2.1]heptan-2-yl]-methanone], for which the IC50 was less than 0.1 µM.

The compound `CN(C)c1ccnc(-c2cnc(N3CC4(CC4)c4ccc(C(=O)N5C[C@@H]6C[C@H]5CN6)cc43)nc2)c1` [Compound 302, [(1S,4S)-2,5-Diazabicyclo[2.2.1]heptan-2-yl]-[1-[5-(4-dimethylamino-pyridin-2-yl)-pyrimidin-2-yl]-spiro[1,2-dihydro-indole-3,1′-cyclopropane]-6-yl]-methanone] gave an IC50 of less than 0.1 µM.

For `Cc1cccc(-c2cnc(N3CC4(CC4)c4ccc(C(=O)N(C)C)cc43)nc2)n1` [Compound 303, N,N-Dimethyl-1-[5-(6-methyl-pyridin-2-yl)-pyrimidin-2-yl]-spiro[1,2-dihydro-indole-3,1′-cyclopropane]-6-carboxylic acid amide], the IC50 was less than 0.1 µM.

Compound `O=C(c1ccc2c(c1)N(c1ncc(-c3ccccn3)cn1)CC21CC1)N1C[C@@H]2C[C@H]1CN2` [Compound 304, [(1S,4S)-2,5-Diazabicyclo[2.2.1]heptan-2-yl]-[1-(5-pyridin-2-yl-pyrimidin-2-yl)-spiro[1,2-dihydro-indole-3,1′-cyclopropane]-6-yl]-methanone] displayed an IC50 of less than 0.1 µM.

The compound `Cc1cccc(-c2cnc(N3CC4(CC4)c4ccc(C(=O)N5C[C@@H]6C[C@H]5CN6)cc43)nc2)n1` [Compound 305, [(1S,4S)-2,5-Diazabicyclo[2.2.1]heptan-2-yl]-[1-[5-(6-methyl-pyridin-2-yl)-pyrimidin-2-yl]-spiro[1,2-dihydro-indole-3,1′-cyclopropane]-6-yl]-methanone] displayed an IC50 of less than 0.1 µM.
